# Laboratory results taken from ChEMBL document CHEMBL1130560, “Kinetic studies of the reaction of S-nitroso-L-cysteine with L-cysteine” (Bioorg Med Chem Lett, 1997).
# Test: First order rate constant for spontaneous decomposition
# Type: ADME
smiles,measurement,value
N[C@@H](CSN=O)C(=O)O,Rate constant,0.0000146 s⁻¹
